{"source": "paper PMC11176637", "about": "(iScience, 2024)", "format_in_all_cases": "cell-based", "key": {"[1]": {"system": "VSVΔG-SM (MERS-CoV S glycoprotein)", "conditions": "0.3125–40 μM"}, "SARS-CoV-2 XBB.1.5": {"system": "SARS-CoV-2 XBB.1.5"}, "[2]": {"system": "VSVΔG-Sδ (SARS-CoV-2 Delta S glycoprotein)", "experiment": "microbe, parasite or virus in culture", "conditions": "for IC50: Severe acute respiratory syndrome coronavirus 2, read-out: IC50 against VSVΔG-Sδ"}, "[3]": {"system": "VSVΔG-G (vesicular stomatitis virus glycoprotein)", "experiment": "microbe, parasite or virus in culture", "conditions": "for IC50: Vesicular stomatitis virus, read-out: IC50, VSVΔG pseudotypes: G; for IC50 against VSVΔG-G: 0.3125–40 μM"}, "SARS-CoV-2 CH.1.1": {"system": "SARS-CoV-2 CH.1.1"}, "[4]": {"system": "SARS-CoV-2 Delta (B.1.617.2)"}, "[5]": {"system": "VSVΔG-Sα (SARS-CoV-2 Alpha S glycoprotein)", "experiment": "microbe, parasite or virus in culture", "conditions": "Severe acute respiratory syndrome coronavirus 2, read-out: IC50 against VSVΔG-Sα"}, "[6]": {"system": "VSVΔG-Sο (SARS-CoV-2 Omicron S glycoprotein)", "experiment": "microbe, parasite or virus in culture", "conditions": "Severe acute respiratory syndrome coronavirus 2, read-out: IC50 against VSVΔG-Sο"}}}
{"smiles": "COc1ccc2cc3c(N)nn(C(=O)Cc4c[nH]c5ccccc45)c3nc2c1", "note": "[PCM-0166392, 1-{6-amino-12-methoxy-2,4,5-triazatricyclo[7.4.0.0³,⁷]trideca-1,3(7),5,8,10,12-hexaen-4-yl}-2-(3-indolyl)-1-ethanone]", "values": [{"measurement": "IC50 against VSVΔG-SM", "setting": "[1]", "value": "not selective"}]}
{"smiles": "Cc1cccc(NC(=O)C[S+]([O-])c2nc(-c3ccccc3)cn2-c2ccc(Cl)cc2)c1C", "note": "(racemic) [PCM-0282478, 2-((1-(4-chlorophenyl)-4-phenyl-1H-imidazol-2-yl)sulfinyl)-N-(2,3-dimethylphenyl)acetamide]", "values": [{"measurement": "IC50, SARS-CoV-2: XBB.1.5 viral replication", "setting": "SARS-CoV-2 XBB.1.5", "value": "neither inhibited"}, {"measurement": "times more potent than synthesized PCM-0163855 against VSVΔG-Sδ", "setting": "[2]", "value": "approximately 10 times"}, {"measurement": "IC50", "setting": "[3]", "value": "> 10000", "unit": "nM"}, {"measurement": "IC50, SARS-CoV-2: CH.1.1 viral replication", "setting": "SARS-CoV-2 CH.1.1", "value": "neither inhibited"}]}
{"smiles": "CNC(=O)C(C#N)(Cc1cc(Cl)cc2c1OCOC2)Cc1cc(Cl)cc2c1OCOC2", "note": "[PCM-0068389, N-methyl3-(6-chloro-2,4-dihydro-1,3-benzodioxin-8-yl)-2-[(6-chloro-2,4-dihydro-1,3-benzodioxin-8-yl)methyl]-2-cyanopropionamide]", "values": [{"measurement": "IC50 against VSVΔG-G", "setting": "[3]", "value": "some activity"}, {"measurement": "IC50 against VSVΔG-SM", "setting": "[1]", "value": "lost all activity"}]}
{"smiles": "N=C(N)Nc1ccc(C(=O)Oc2ccc3cc(C(=N)N)ccc3c2)cc1", "note": "[PCM-0095060, 6-amidino-2-naphthyl p-guanidinobenzoate, reference compound]", "values": [{"measurement": "IC50", "setting": "[2]", "value": 310, "unit": "nM"}, {"measurement": "IC50 against VSVΔG-G", "setting": "[3]", "value": "no significant activity"}, {"measurement": "inhibition of bona fide SARS-CoV-2 Delta virus replication", "setting": "[4]", "value": "failed to inhibit"}, {"measurement": "IC50", "setting": "[5]", "value": 920, "unit": "nM"}]}
{"smiles": "Cc1cccc(NC(=O)CS(=O)(=O)c2nc(-c3ccccc3)cn2-c2ccc(Cl)cc2)c1C", "note": "[PCM-0163855, 2-((1-(4-chlorophenyl)-4-phenyl-1H-imidazol-2-yl)sulfonyl)-N-(2,3-dimethylphenyl)acetamide]", "values": [{"measurement": "IC50, SARS-CoV-2: XBB.1.5 viral replication", "setting": "SARS-CoV-2 XBB.1.5", "value": "neither inhibited"}, {"measurement": "IC50", "setting": "[2]", "value": 450, "unit": "nM"}, {"measurement": "IC50", "setting": "[6]", "value": 41200, "unit": "nM"}, {"measurement": "IC50", "setting": "[3]", "value": "> 10000", "unit": "nM"}, {"measurement": "IC50, SARS-CoV-2: CH.1.1 viral replication", "setting": "SARS-CoV-2 CH.1.1", "value": "neither inhibited"}, {"measurement": "IC50 against VSVΔG-SM", "setting": "[1]", "value": "inactive"}, {"measurement": "IC50", "setting": "[5]", "value": 370, "unit": "nM"}]}
{"smiles": "Nc1nc(Nc2ccccc2)sc1C(=O)c1ccccc1Cl", "note": "[PCM-0179622, (4-amino-2-anilino-1,3-thiazol-5-yl)(o-chlorophenyl)methanone]", "values": [{"measurement": "IC50 against VSVΔG-SM", "setting": "[1]", "value": "not selective"}]}
